In patent US9650365B2 (UNIVERSITY OF CONNECTICUT, priority 2014, dated 2017):
Where “and” joins values, the source holds several entries; their conditions need not be identical. Equal values may be shown once. Read-outs that look alike come from different tables or passages of the source.

Assays:
[1] = tested on: Gli1 in M2s; test: Down-regulation of Gli1 in M2s; assay type: cell-based
Description: Additional analogues have been synthesized and characterized in the assays described above.

[2] = tested on: Hh signaling (Gli1 mRNA) in C3H10T1/2 cells; test: Down-regulation of endogenous Gli1 mRNA in Hh-dependent C3H10T1/2 cells; assay type: cell-based, mouse; details: Mus musculus
How it was run: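 Hh pathway activated in C3H10T1/2 cells with exogenous agonist (recombinant Hh ligand or small molecule) alongside inhibitor; Gli1 mRNA measured by qPCR. Concentration-dependent Gli1 reduction also assessed in murine BCC ASZ cells; values mean±SEM, ≥2 experiments in triplicate.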

[3] = tested on: HUVEC; test: HUVEC proliferation (MTS); assay type: cell-based, human; details: Homo sapiens, HUVEC
How it was run: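 HUVECs seeded at 3,000 cells/well, attached overnight, then treated with varying drug concentrations. Proliferation read by MTS/PMS after 72 h.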

[4] = tested on: Hh-dependent MB; details: oral administration; cited from earlier work
[5] = target: T1, BCRP (Homo sapiens, UniProt Q9UNQ0); details: read-out: IC50 BCRP inhibition; cited from earlier work
T1 construct: expressed in transfected cells; host or cells: Madin Darby canine kidney cells (MDCK)
T1 sequence (Q9UNQ0 1-655): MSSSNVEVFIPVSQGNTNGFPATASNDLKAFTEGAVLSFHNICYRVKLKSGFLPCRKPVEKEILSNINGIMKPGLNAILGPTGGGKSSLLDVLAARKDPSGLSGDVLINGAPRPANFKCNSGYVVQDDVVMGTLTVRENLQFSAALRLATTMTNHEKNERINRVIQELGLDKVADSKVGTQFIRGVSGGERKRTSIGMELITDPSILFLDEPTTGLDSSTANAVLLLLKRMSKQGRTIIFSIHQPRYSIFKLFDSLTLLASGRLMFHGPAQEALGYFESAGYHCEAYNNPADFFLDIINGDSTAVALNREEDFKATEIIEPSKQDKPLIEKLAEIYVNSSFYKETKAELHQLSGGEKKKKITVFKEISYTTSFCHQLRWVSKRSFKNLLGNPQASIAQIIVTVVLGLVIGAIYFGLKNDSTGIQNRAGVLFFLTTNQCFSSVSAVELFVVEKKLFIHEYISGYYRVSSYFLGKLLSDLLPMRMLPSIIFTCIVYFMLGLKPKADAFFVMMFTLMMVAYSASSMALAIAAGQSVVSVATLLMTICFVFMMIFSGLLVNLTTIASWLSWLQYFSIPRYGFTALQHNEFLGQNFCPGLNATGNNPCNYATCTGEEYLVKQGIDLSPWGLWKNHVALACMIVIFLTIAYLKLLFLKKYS

[6] = tested on: Ptch1 in C3Hs; test: Down-regulation of Ptch1 in C3H10T1/2 cells; assay type: cell-based, mouse
Description: For this assay, the wild-type and D477G Smo constructs will be transiently transfected into C3H10T1/2 cells and inhibition of pathway signaling assessed as previously described.

[7] = tested on: MERP MB cells (Math1-Cre-ER; Ptc fl/fl medulloblastoma); test: Anti-proliferation in primary MERP MB cells; assay type: cell-based, mice; details: Mus musculus, 48 h, read-out: GI50 (μM) MERP MB, 48 hr incubation
Procedure: General Information. Protocols for general cell culture, qPCR and Hh inhibition in C3H10T1/2 and ASZ cells are as previously described.^28 Protocols for the initiation and growth of Math1-Cre-ER; Ptc^fl/fl medulloblastoma tumors, isolation and in vitro culture of MERP MB cells, as wells as the anti-proliferation and qPCR studies performed in these cells were as previously described.^a Sonic Hedgehog (C25II) recombinant mouse protein was purchased from Life Technologies. aData was analyzed using GraphPad Prism 5 and reported values represent mean±SEM for at least two separate experiments performed in triplicate.
In this well-studied model system for evaluating small molecule inhibition of Hh signaling, addition of an exogenous Hh agonist (recombinant Hh ligand or small molecule) results in a characteristic increase in Gli1 mRNA expression. Concomitant incubation with a pathway inhibitor reduces Gli1 expression. […] In addition, several compounds were evaluated for their anti-proliferative effects in primary Hh-dependent medulloblastoma cells isolated from conditional patched knockout (Math1-Cre-ER; Ptc^fl/fl, MERP) mice. […] Finally, each of these analogues was evaluated for its ability to inhibit proliferation in human umbilical vein […] cells (HUVECs). In vivo angiogenesis is dependent on endothelial cell proliferation; therefore, the inhibition of HUVEC proliferation is commonly utilized as an early stage in vitro model of anti-angiogenic activity.

[8] = C3H 10T1/2, read-out: Hh inhibition

For `CCC(C)n1ncn(-c2ccc(N3CCN(c4ccc(OCC5COC(Cn6cncn6)(c6ccc(Cl)cc6Cl)O5)cc4)CC3)cc2)c1=O` (stereo not shown) [ITZ, itraconazole, reference compound], which IC50 [1] is on record?
The IC50 was 0.3 µM and 0.52 µM.

What about the IC50 ([2]; C3H 10T1/2, 24 h, read-out: IC50 (μM) C3H10T1/2, 24 hr incubation) of the same molecule?
Its IC50 is 0.074 µM.

And the inhibition at 1 µM ([2]; C3H 10T1/2, read-out: % Hh inhibition)?
Its inhibition at 1 µM is 96%.

And the inhibition at 0.5 µM [2, 8]?
The inhibition at 0.5 µM was about 70%.

And the inhibition at 1 µM [2, 8]?
The inhibition at 1 µM was about 98%.

And the IC50 ([2]; C3H 10T1/2, read-out: Hh pathway inhibition C3H10T1/2, down-regulation of endogenous Gli1 mRNA)?
The IC50 was 0.074 ± 0.02 µM.

And the IC50 ([2]; C3H 10T1/2, read-out: IC50 (μM) Gli1-C3Hs)?
The IC50 was 0.07 ± 0.02 µM.

And the IC50 ([2]; C3H 10T1/2, read-out: IC50 down-regulation of Gli1, C3H10T1/2 cells)?
Its IC50 is 0.074 µM.

What about the GI50 ([3]; 72 h, read-out: GI50 (μM) HUVEC, 72 h) of the same molecule?
Its GI50 is 0.4 ± 0.03 µM.

What about the GI50 ([3]; read-out: GI50 HUVEC proliferation) of the same molecule?
Its GI50 is 0.45 µM.

And the IC50 ([3]; read-out: HUVEC Anti-proliferation)?
The IC50 was 450 ± 140 nM.

What about the survival [4] of the same molecule?
Its survival is “increased survival”.

And the IC50 [5]?
Its IC50 is about 1000 nM.

And the IC50 [6]?
The IC50 was 0.33 µM.

What about the IC50 ([6]; Mus musculus, C3H 10T1/2) of the same molecule?
The IC50 was 0.2 µM.

And the GI50 [7]?
Its GI50 is 0.44 ± 0.08 µM.
